Measured values: US12240862B2, “Inhibitors of peptidylarginine deiminases” (Gilead Sciences, Inc., priority 2020, dated 2025)

Biological target: T1, human PAD4 (Homo sapiens, UniProt Q9UM07)
T1 construct: human PAD4 (NM_012387), A2P663, was PCR amplified; His-SUMO (N, cleaved yes); made in house; host or cells: E. coli BL21(DE3)
Assay: In vitro PAD4 BAEE biochemical assay
Settings: human PAD4, BAEE substrate; 5 nM PAD4, 2 mM calcium chloride, 3 mM BAEE; geometric mean of multiple experiments
Method in brief: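 Tag-free recombinant hPAD4 (5 nM), 2 mM CaCl2, 3 mM BAEE, 50 mM MOPS pH 7.6, 2 mM DTT; 30 min compound preincubation, 2 h reaction, all 25 °C. EDTA quench; ammonia read via o-phthalaldehyde amine coupling, 1 h.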

T1 sequence (Q9UM07 2-663): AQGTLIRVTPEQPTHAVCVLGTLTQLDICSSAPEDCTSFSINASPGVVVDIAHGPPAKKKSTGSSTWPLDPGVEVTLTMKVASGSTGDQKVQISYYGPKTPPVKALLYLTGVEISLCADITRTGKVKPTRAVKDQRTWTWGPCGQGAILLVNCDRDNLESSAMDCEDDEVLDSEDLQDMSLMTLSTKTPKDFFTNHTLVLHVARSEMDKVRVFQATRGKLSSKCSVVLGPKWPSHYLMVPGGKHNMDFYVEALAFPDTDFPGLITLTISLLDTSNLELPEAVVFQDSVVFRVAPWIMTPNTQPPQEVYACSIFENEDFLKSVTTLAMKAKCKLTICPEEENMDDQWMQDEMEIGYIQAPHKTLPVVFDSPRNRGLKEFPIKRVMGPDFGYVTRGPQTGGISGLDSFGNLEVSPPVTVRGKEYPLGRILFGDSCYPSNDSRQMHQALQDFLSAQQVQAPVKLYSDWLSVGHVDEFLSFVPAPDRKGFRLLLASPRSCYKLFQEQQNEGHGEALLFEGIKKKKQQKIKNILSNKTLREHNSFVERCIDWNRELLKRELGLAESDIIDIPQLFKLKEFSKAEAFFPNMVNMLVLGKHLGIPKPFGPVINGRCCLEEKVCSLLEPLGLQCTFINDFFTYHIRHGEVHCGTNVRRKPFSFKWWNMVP

IC50 [nM]	SMILES
76.2	COc1cc(C(=O)N2CCC[C@@H](N)C2)cc2nc(-c3cc4ccc([C@@H](C)NC(=O)C(C)(C)O)nc4n3CC3CC3)c(C)n12 [Example 127, ~{N}-[(1~{R})-1-[2-[7-[(3~{R})-3-aminopiperidine-1-carbonyl]-5-methoxy-3-methylimidazo [1,2-a]pyridin-2-yl]-1-(cyclopropylmethyl)pyrrolo [2,3-b]pyridin-6-yl]ethyl]-2-hydroxy-2-methylpropanamide]
75.1	CCN(c1ccc2cc(-c3nc4cc(C(=O)N5[C@H]6CC[C@@H]5[C@H](N)C6)cc(OC)n4c3C)n(CC3CC3)c2n1)S(C)(=O)=O [Example 475, ~{N}-[2-[7-[(1~{R},2~{R}, 4~{S})-2-amino-7-azabicyclo[2.2.1]heptane-7-carbonyl]-5-methoxy-3-methylimidazo[1,2-a]pyridin-2-yl]-1-(cyclopropylmethyl)pyrrolo [2,3-b]pyridin-6-yl]-~{N}-ethylmethanesulfonamide]
2500	COc1cc(C(=O)N2C[C@H]3CC[C@@H]2[C@@H]3N)cc2nc(-c3cc4ccc(N(C)S(C)(=O)=O)nc4n3C)c(C)n12 [Example 493, N-[2-[7-[(1R,4R, 7R)-7-amino-2-azabicyclo [2.2.1]heptane-2-carbonyl]-5-methoxy-3-methyl-imidazo[1,2-a]pyridin-2-yl]-1-methyl-pyrrolo[2,3-b]pyridin-6-yl]-N-methyl-methanesulfonamide]
130	COc1cc(C(=O)N2[C@H]3CC[C@@H]2[C@H](N)C3)cc2nc(-c3cc4ccc([C@@H](C)NC(=O)C56CC(F)(C5)C6)nc4n3CC3CC3)c(C3CC3)n12 [Example 144, ~{N}-[(1~{R})-1-[2-[7-[(1~{R},2~{R},4~{S})-2-amino-7-azabicyclo[2.2.1]heptane-7-carbonyl]-3-cyclopropyl-5-methoxyimidazo[1,2-a]pyridin-2-yl]-1-(cyclopropylmethyl)pyrrolo [2,3-b]pyridin-6-yl]ethyl]-3-fluorobicyclo[1.1.1]pentane-1-carboxamide]
286	COc1cc(C(=O)N2CCC[C@@H](N)C2)cc2nc(-c3cc4ccc([C@@H](C)NC(=O)OC5CCCC5)nc4n3CC3CC3)c(C)n12 [Example 255, cyclopentyl~{N}-[(1~{R})-1-[2-[7-[(3~{R})-3-aminopiperidine-1-carbonyl]-5-methoxy-3-methylimidazo[1,2-a]pyridin-2-yl]-1-(cyclopropylmethyl)pyrrolo [2,3-b]pyridin-6-yl]ethyl] carbamate]
39.7	COc1cc(C(=O)N2[C@H]3CC[C@@H]2[C@H](N)C3)cc2nc(-c3cc4ccc([C@@H](C)NC(=O)N5CCO[C@H](C)C5)nc4n3CC3CC3)c(C)n12 [Example 210, (2~{R})-~{N}-[(1~{R})-1-[2-[7-[(1~{R},2~{R}, 4~{S})-2-amino-7-azabicyclo[2.2.1]heptane-7-carbonyl]-5-methoxy-3-methylimidazo [1,2-a]pyridin-2-yl]-1-(cyclopropylmethyl)pyrrolo [2,3-b]pyridin-6-yl]ethyl]-2-methylmorpholine-4-carboxamide]
225	COC(=O)N[C@H](C)c1ccc2cc(-c3nc4cc(C(=O)N5CCC[C@@H](N)C5)cc(OC)n4c3C)n(CC3CC3)c2n1 [Example 258]
194	CCc1c(-c2cc3ccc(N(C(F)F)S(C)(=O)=O)nc3n2CC2CC2)nc2cc(C(=O)N3C[C@H](N)CC[C@@H]3C)ccn12 [Example 406, ~{N}-[2-[7-[(2~{S},5~{R})-5-amino-2-methylpiperidine-1-carbonyl]-3-ethylimidazo [1,2-a]pyridin-2-yl]-1-(cyclopropylmethyl)pyrrolo [2,3-b]pyridin-6-yl]-~{N}-(difluoromethyl) methanesulfonamide]
171	COc1cc(C(=O)N2[C@H]3CC[C@@H]2[C@H](N)C3)cc2nc(-c3cc4ccc(C(C)(C)NC(=O)C(C)(C)C)nc4n3CC3CC3)c(C)n12 [Example 168, ~{N}-[2-[2-[7-[(1~{R},2~{R},4~{S})-2-amino-7-azabicyclo[2.2.1]heptane-7-carbonyl]-5-methoxy-3-methylimidazo [1,2-a]pyridin-2-yl]-1-(cyclopropylmethyl)pyrrolo [2,3-b]pyridin-6-yl]propan-2-yl]-2,2-dimethylpropanamide]
519	COc1cc(C(=O)N2CCC[C@@H](N)C2)cc2nc(-c3cc4ccc(C(NC(C)=O)C(C)C)nc4n3CC3CC3)c(C)n12 (stereo partly shown) [Example 195, ~{N}-[1-[2-[7-[(3~{R})-3-aminopiperidine-1-carbonyl]-5-methoxy-3-methylimidazo [1,2-a]pyridin-2-yl]-1-(cyclopropylmethyl)pyrrolo [2,3-b]pyridin-6-yl]-2-methylpropyl]acetamide]
145	CCN(c1ccc2cc(-c3nc4cc(C(=O)N5CCC[C@@H](N)C5)cc(OC)n4c3C)n(CC3CC3)c2n1)S(C)(=O)=O [Example 484, ~{N}-[2-[7-[(3~{R})-3-aminopiperidine-1-carbonyl]-5-methoxy-3-methylimidazo[1,2-a]pyridin-2-yl]-1-(cyclopropylmethyl)pyrrolo [2,3-b]pyridin-6-yl]-~{N}-ethylmethanesulfonamide]

Further lines, the molecule ahead of its results:

SMILES	IC50 [nM]
COc1cc(C(=O)N2C[C@H]3CC[C@@H]2[C@H](N)C3)cc2nc(-c3cc4ccc(N(C(F)F)S(C)(=O)=O)nc4n3CC3CC3)c(C)n12 (single isomer, unassigned) [Example 369, ~{N}-[2-[7-[(1~{S},4~{R}, 6~{R})-6-amino-2-azabicyclo[2.2.2]octane-2-carbonyl]-5-methoxy-3-methylimidazo[1,2-a]pyridin-2-yl]-1-(cyclopropylmethyl)pyrrolo [2,3-b]pyridin-6-yl]-~{N}-(difluoromethyl) methanesulfonamide]	13600
COc1cc(C(=O)N2[C@H]3CC[C@@H]2[C@H](N)C3)cc2nc(-c3cc4ccc([C@@H](C)NC(=O)C5(OC)CC5)nc4n3CC3CC3)c(C)n12 [Example 42, ~{N}-[(1~{R})-1-[2-[7-[(1~{R},2~{R},4~{S})-2-amino-7-azabicyclo [2.2.1]heptane-7-carbonyl]-5-methoxy-3-methylimidazo [1,2-a]pyridin-2-yl]-1-(cyclopropylmethyl)pyrrolo[2,3-b]pyridin-6-yl]ethyl]-1-methoxycyclopropane-1-carboxamide]	23.3
CCc1ccc2cc(-c3nc4cc(C(=O)N5CCC[C@@H](N)C5)cc(OC)n4c3C)n(CC3CC3)c2n1 [Example 613, [(3~{R})-3-aminopiperidin-1-yl]-[2-[1-(cyclopropylmethyl)-6-ethylpyrrolo[2,3-b]pyridin-2-yl]-5-methoxy-3-methylimidazo [1,2-a]pyridin-7-yl] methanone]	302
CCc1ccc2cc(-c3nc4cc(C(=O)N5CC6(CCCNC6)C5)cc(OC)n4c3C)n(CC3CC3)c2n1 [Example 594, [2-[1-(cyclopropylmethyl)-6-ethylpyrrolo[2,3-b]pyridin-2-yl]-5-methoxy-3-methylimidazo[1,2-a]pyridin-7-yl]-(2,8-diazaspiro[3.5]nonan-2-yl) methanone]	1700
COc1cc(C(=O)N2CCC[C@@H](N)C2)cc2nc(-c3cc4ccc(-c5cccnc5C)nc4n3CC3CC3)c(C)n12 [Example 604, [(3~{R})-3-aminopiperidin-1-yl]-[2-[1-(cyclopropylmethyl)-6-(2-methylpyridin-3-yl)pyrrolo[2,3-b]pyridin-2-yl]-5-methoxy-3-methylimidazo[1,2-a]pyridin-7-yl]methanone]	427
COc1cc(C(=O)N2CCC[C@@H](N)C2)cc2nc(-c3cc4ccc(C(C)n5ccnn5)nc4n3CC3CC3)c(C)n12 (stereo partly shown) [Example 537, [(3~{R})-3-aminopiperidin-1-yl]-[2-[1-(cyclopropylmethyl)-6-[1-(triazol-1-yl)ethyl]pyrrolo[2,3-b]pyridin-2-yl]-5-methoxy-3-methylimidazo[1,2-a]pyridin-7-yl]methanone]	571
CS(=O)(=O)N(c1ccc2cc(-c3nc4cc(C(=O)N5CC[C@@H](O)[C@@H](N)C5)ccn4c3C3CC3)n(CC3CC3)c2n1)C(F)F [Example 395, ~{N}-[2-[7-[(3~{S},4~{R})-3-amino-4-hydroxypiperidine-1-carbonyl]-3-cyclopropylimidazo[1,2-a]pyridin-2-yl]-1-(cyclopropylmethyl)pyrrolo [2,3-b]pyridin-6-yl]-~{N}-(difluoromethyl) methanesulfonamide]	259
COc1cc(C(=O)N2[C@H]3CC[C@@H]2[C@H](N)C3)cc2nc(-c3cc4ccc([C@@H](C)NC(=O)C5(C(F)(F)F)CCOCC5)nc4n3CC3CC3)c(C)n12 [Example 67, ~{N}-[(1~{R})-1-[2-[7-[(1~{R},2~{R},4~{S})-2-amino-7-azabicyclo [2.2.1]heptane-7-carbonyl]-5-methoxy-3-methylimidazo [1,2-a]pyridin-2-yl]-1-(cyclopropylmethyl)pyrrolo[2,3-b]pyridin-6-yl]ethyl]-4-(trifluoromethyl)oxane-4-carboxamide]	124
COc1cc(C(=O)N2[C@H]3CC[C@@H]2[C@H](N)C3)cc2nc(-c3cc4ccc([C@@H](C)N5CCCC5=O)nc4n3CC3CC3)c(C)n12 [Example 276, 1-[(1~{R})-1-[2-[7-[(1~{R},2~{R},4~{S})-2-amino-7-azabicyclo[2.2.1]heptane-7-carbonyl]-5-methoxy-3-methylimidazo [1,2-a]pyridin-2-yl]-1-(cyclopropylmethyl)pyrrolo [2,3-b]pyridin-6-yl]ethyl]pyrrolidin-2-one]	61.6
COc1cc(C(=O)N2[C@H]3CC[C@@H]2[C@H](N)[C@H](OCC(F)F)C3)cc2nc(-c3cc4ccc([C@@H](C)NC(=O)C56CC(F)(C5)C6)nc4n3CC3CC3)c(C)n12 [Example 18]	578
CCc1ccc2cc(-c3nc4cc(C(=O)N5CCC[C@@H](N)C5)ccn4c3C3CC3)n(CC3CC3)c2n1 [Example 597, [(3~{R})-3-aminopiperidin-1-yl]-[3-cyclopropyl-2-[1-(cyclopropylmethyl)-6-ethylpyrrolo[2,3-b]pyridin-2-yl]imidazo[1,2-a]pyridin-7-yl]methanone]	299
